These molecules were tested against purified human MMP-12 enzyme (Homo sapiens, UniProt P39900) (assay: MMP-12 FRET assay). Conditions: substrate 20 μM, room temperature.
Format: biochemical
Protocol: Compounds according to the present teachings were tested in an MMP-12 FRET assay as follows. To each well of black polystyrene 96-well plate was added assay buffer (50 mM HEPES (pH 7.4), 100 mM NaCl, 5 mM CaCl2 and 0.005% Brij-35 (Polyoxyethyleneglycol dodecyl ether, Pierce cat#20150), purified human MMP-12 enzyme, and varied concentrations of test compounds (prepared by serial dilution of a stock solution in 100% DMSO). The plates were incubated at room temperature for 30 minutes. The enzymatic reactions were initiated by addition of a substrate, MCA-Pro-Leu-Gly-Leu-Dpa(DNP)-Ala-Arg, containing a fluorescent group (7-methoxycoumarin, MCA) and a 2,4-dinitrophenyl group (DNP), to a final concentration of 20 μM. The final DMSO concentration in the assay was 10%. The reaction was monitored for 30 minutes at room temperature and the initial rate of the cleavage reaction was determined using a fluorescence plate reader (λex: 325 nm, λem: 395 nm). Plots of the inhibitor concentration vs. the initial cleavage rate were fit to the following equation: y=Vmax*(1−(x^n/(K^n+x^n))), whereby x=inhibitor concentration, y=initial rate, Vmax=initial rate in the absence of inhibitor, n=slope factor, and K=IC50 for the inhibition curve.

Sequence of purified human MMP-12 enzyme (P39900 106-470): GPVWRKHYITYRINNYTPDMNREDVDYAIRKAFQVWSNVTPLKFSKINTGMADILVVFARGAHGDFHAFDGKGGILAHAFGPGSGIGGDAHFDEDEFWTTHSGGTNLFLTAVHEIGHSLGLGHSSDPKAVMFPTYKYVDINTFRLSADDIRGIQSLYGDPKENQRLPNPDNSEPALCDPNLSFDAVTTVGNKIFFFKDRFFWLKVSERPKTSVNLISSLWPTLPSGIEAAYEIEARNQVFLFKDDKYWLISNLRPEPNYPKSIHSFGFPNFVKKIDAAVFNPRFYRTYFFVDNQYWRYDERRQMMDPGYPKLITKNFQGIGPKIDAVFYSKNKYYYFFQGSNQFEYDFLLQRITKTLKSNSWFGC

Structure (SMILES) | IC50 [nM]
CC(C)[C@H](NS(=O)(=O)c1ccc2c(c1)oc1ccc(-c3ncon3)cc12)C(=O)O [Compound 93, (S)-2-(8-(1,2,4-oxadiazol-3-yl)dibenzo[b,d]furan-3-sulfonamido)-3-methylbutanoic acid] | 68
Cc1nc(C)c(-c2ccc3c(c2)oc2ccc(S(=O)(=O)N[C@@H](C(=O)O)C(C)C)cc23)s1 [Compound 169, (R)-2-(7-(2,4-dimethylthiazol-5-yl)dibenzo[b,d]furan-2-sulfonamido)-3-methylbutanoic acid] | 11
CC(C)[C@@H](NS(=O)(=O)c1ccc2oc3cc(-c4nc5ccc(OC(F)(F)F)cc5s4)ccc3c2c1)C(=O)O [Compound 301, (R)-3-methyl-2-(7-(6-(trifluoromethoxy)benzo[d]thiazol-2-yl)dibenzo[b,d]furan-2-sulfonamido)butanoic acid] | 78
CC(C)[C@H](NS(=O)(=O)c1ccc2c(c1)oc1ccc(-c3ccc(C(C)N(C)C)s3)cc12)C(=O)O (stereo partly drawn) [Compound 50, (S)-2-(8-(5-(1-(dimethylamino)ethyl)thiophen-2-yl)dibenzo[b,d]furan-3-sulfonamido)-3-methylbutanoic acid] | 5.7
CC(C)[C@H](NS(=O)(=O)c1ccc2c(c1)sc1ccc(-c3cnn(C)c3)cc12)C(=O)O [Compound 40, (S)-3-methyl-2-(8-(1-methyl-1H-pyrazol-4-yl)dibenzo[b,d]thiophene-3-sulfonamido)butanoic acid] | 2.6
CC(C)[C@H](NS(=O)(=O)c1ccc2c(c1)sc1ccc(-c3ccc(-c4ccc(Cl)nc4)nc3)cc12)C(=O)O [Compound 61, (S)-2-(8-(6′-chloro-2,3′-bipyridin-5-yl)dibenzo[b,d]thiophene-3-sulfonamido)-3-methylbutanoic acid] | 276
CC(C)[C@H](NS(=O)(=O)c1ccc2c(c1)sc1ccc(-c3ccsc3)cc12)C(=O)O [Compound 26, (S)-3-methyl-2-(8-(thiophen-3-yl)dibenzo[b,d]thiophene-3-sulfonamido)butanoic acid] | 38
CC(C)(NS(=O)(=O)c1ccc2oc3cc(-c4noc(C(C)(C)C)n4)ccc3c2c1)C(=O)O [Compound 277, 2-(7-(5-tert-butyl-1,2,4-oxadiazol-3-yl)dibenzo[b,d]furan-2-sulfonamido)-2-methylpropanoic acid] | 130
CC(C)Cc1nc(-c2ccc3c(c2)oc2ccc(S(=O)(=O)N[C@@H](C(=O)O)C(C)C)cc23)no1 [Compound 149, (R)-2-(7-(5-isobutyl-1,2,4-oxadiazol-3-yl)dibenzo[b,d]furan-2-sulfonamido)-3-methylbutanoic acid] | 5.3
CC(C)c1nc(-c2ccc3c(c2)oc2cc(S(=O)(=O)N[C@H](C(=O)O)C(C)C)ccc23)no1 [Compound 154, (S)-2-(7-(5-isopropyl-1,2,4-oxadiazol-3-yl)dibenzo[b,d]furan-3-sulfonamido)-3-methylbutanoic acid] | 32
Cc1cscc1-c1ccc2sc3cc(S(=O)(=O)N[C@H](C(=O)O)C(C)C)ccc3c2c1 [Compound 24, (S)-3-methyl-2-(8-(4-methylthiophen-3-yl)dibenzo[b,d]thiophene-3-sulfonamido)butanoic acid] | 190
CC(C)[C@@H](NS(=O)(=O)c1ccc2oc3cc(-c4ccc(C(F)(F)F)cc4)ccc3c2c1)C(=O)O [Compound 120, (R)-3-methyl-2-(7-(4-(trifluoromethyl)phenyl)dibenzo[b,d]furan-2-sulfonamido)butanoic acid] | 2.2
CC(C)[C@H](NS(=O)(=O)c1ccc2c(c1)sc1c(-c3ccsc3Cl)cccc12)C(=O)O [Compound 51, (S)-2-(6-(2-chlorothiophen-3-yl)dibenzo[b,d]thiophene-3-sulfonamido)-3-methylbutanoic acid] | > 1000
CC(C)[C@@H](NS(=O)(=O)c1ccc2oc3cc(-c4noc(CC(C)(C)C)n4)ccc3c2c1)C(=O)O [Compound 189, (R)-3-methyl-2-(7-(5-neopentyl-1,2,4-oxadiazol-3-yl)dibenzo[b,d]furan-2-sulfonamido)butanoic acid] | 4.5
CC(C)[C@H](NS(=O)(=O)c1ccc2c(c1)sc1ccc(-c3cn[nH]c3)cc12)C(=O)O [Compound 45, (S)-2-(8-(1H-pyrazol-4-yl)dibenzo[b,d]thiophene-3-sulfonamido)-3-methylbutanoic acid] | 5.5

Now from value to molecule:

IC50 [nM] | Structure (SMILES)
< 1.5 | CC(C)[C@H](NS(=O)(=O)c1ccc2c(c1)oc1cc(-c3cnc(Cl)s3)ccc12)C(=O)O [Compound 181, (S)-2-(7-(2-chlorothiazol-5-yl)dibenzo[b,d]furan-3-sulfonamido)-3-methylbutanoic acid]
1.5 | COc1ncc(-c2ccc3c(c2)oc2ccc(S(=O)(=O)N[C@@H](C(=O)O)C(C)C)cc23)cn1 [Compound 168, (R)-2-(7-(2-methoxypyrimidin-5-yl)dibenzo[b,d]furan-2-sulfonamido)-3-methylbutanoic acid]
< 1.5 | CC(C)[C@H](NS(=O)(=O)c1ccc2c(c1)oc1ccc(-c3csc(Cl)n3)cc12)C(=O)O [Compound 180, (S)-2-(8-(2-chlorothiazol-4-yl)dibenzo[b,d]furan-3-sulfonamido)-3-methylbutanoic acid]
< 1.5 | C/C=C/c1ccc2oc3cc(S(=O)(=O)N[C@H](C(=O)O)C(C)C)ccc3c2c1 [Compound 66, (S,E)-3-methyl-2-(8-(prop-1-enyl)dibenzo[b,d]furan-3-sulfonamido)butanoic acid]
< 1.5 | CC(C)[C@H](NS(=O)(=O)c1ccc2c(c1)oc1ccc(-c3cnn(C)c3)cc12)C(=O)O [Compound 18, (S)-3-methyl-2-(8-(1-methyl-1H-pyrazol-4-yl)dibenzo[b,d]furan-3-sulfonamido)butanoic acid]
< 1.5 | CCCn1cc(-c2ccc3oc4cc(S(=O)(=O)N[C@H](C(=O)O)C(C)C)ccc4c3c2)cn1 [Compound 21, (S)-3-methyl-2-(8-(1-propyl-1H-pyrazol-4-yl)dibenzo[b,d]furan-3-sulfonamido)butanoic acid]
< 1.5 | COC#Cc1ccc2oc3cc(S(=O)(=O)N[C@H](C(=O)O)C(C)C)ccc3c2c1 [Compound 38, (S)-2-(8-(methoxyethynyl)dibenzo[b,d]furan-3-sulfonamido)-3-methylbutanoic acid]
< 1.5 | CC(C)[C@H](NS(=O)(=O)c1ccc2c(c1)oc1ccc(-c3ccoc3Cl)cc12)C(=O)O [Compound 94, (S)-2-(8-(2-chlorofuran-3-yl)dibenzo[b,d]furan-3-sulfonamido)-3-methylbutanoic acid]
1.5 | CC(C)[C@H](NS(=O)(=O)c1ccc2c(c1)sc1cc(-c3ccc(Cl)s3)ccc12)C(=O)O [Compound 304, (S)-2-(7-(5-chlorothiophen-2-yl)dibenzo[b,d]thiophene-3-sulfonamido)-3-methylbutanoic acid]
< 1.5 | CC(C)[C@H](NS(=O)(=O)c1ccc2c(c1)oc1ccc(-c3ccc(Cl)nc3)cc12)C(=O)O [Compound 64, (S)-2-(8-(6-chloropyridin-3-yl)dibenzo[b,d]furan-3-sulfonamido)-3-methylbutanoic acid]
< 1.5 | CC(C)[C@H](NS(=O)(=O)c1ccc2c(c1)oc1ccc(-c3nc(C(F)(F)F)cs3)cc12)C(=O)O [Compound 126, (S)-3-methyl-2-(8-(4-(trifluoromethyl)thiazol-2-yl)dibenzo[b,d]furan-3-sulfonamido)butanoic acid]
2 | CC(C)[C@H](NS(=O)(=O)c1ccc2c(c1)oc1ccc(-c3ccc(C(F)(F)F)cc3)cc12)C(=O)O [Compound 311, (S)-3-methyl-2-(8-(4-(trifluoromethyl)phenyl)dibenzo[b,d]furan-3-sulfonamido)butanoic acid]
2.2 | Cc1cscc1-c1ccc2oc3cc(S(=O)(=O)N[C@H](C(=O)O)C(C)C)ccc3c2c1 [Compound 5, (S)-3-methyl-2-(8-(4-methylthiophen-3-yl)dibenzo[b,d]furan-3-sulfonamido)butanoic acid]
1.5 | CCc1sc(-c2ccc3c(c2)oc2cc(S(=O)(=O)N[C@H](C(=O)O)C(C)C)ccc23)cc1Br [Compound 165, (S)-2-(7-(4-bromo-5-ethylthiophen-2-yl)dibenzo[b,d]furan-3-sulfonamido)-3-methylbutanoic acid]
< 1.5 | CC(C)[C@H](NS(=O)(=O)c1ccc2c(c1)oc1cc(-c3cc4ccccc4s3)ccc12)C(=O)O [Compound 136, (S)-2-(7-(benzo[b]thiophen-2-yl)dibenzo[b,d]furan-3-sulfonamido)-3-methylbutanoic acid]
< 1.5 | CC(C)[C@H](NS(=O)(=O)c1ccc2c(c1)oc1ccc(-c3nc(-c4ccc(C(F)(F)F)cc4)cs3)cc12)C(=O)O [Compound 283, (S)-3-methyl-2-(8-(4-(4-(trifluoromethyl)phenyl)thiazol-2-yl)dibenzo[b,d]furan-3-sulfonamido)butanoic acid]
1.8 | CC(C)[C@H](NS(=O)(=O)c1ccc2c(c1)oc1ccc(C(=N)NO)cc12)C(=O)O [Compound 82, (S)-2-(8-(N-hydroxycarbamimidoyl)dibenzo[b,d]furan-3-sulfonamido)-3-methylbutanoic acid]
< 1.5 | CC(C)[C@H](NS(=O)(=O)c1ccc2c(c1)oc1ccc(-c3cnc(Cl)s3)cc12)C(=O)O [Compound 179, (S)-2-(8-(2-chlorothiazol-5-yl)dibenzo[b,d]furan-3-sulfonamido)-3-methylbutanoic acid]
